# Measured values: ChEMBL document CHEMBL4304800, “C4-Phenylthio β-lactams: Effect of the chirality of the β-lactam ring on antimicrobial activity” (2019)
# Legend:
# Type in all cases: functional
# [1] = system: Moraxella catarrhalis; assay: Bactericidal activity against serine beta-lactamase producing Moraxella catarrhalis incubated in MH broth for 24 to 48 hrs by microbroth dilution method
# [2] = system: Mycobacterium tuberculosis; assay: Antitubercular activity against serine beta-lactamase producing Mycobacterium tuberculosis H37Rv after 14 days in presence of middlebrook 7H9/BSA medium by eleven fold serial dilution method; conditions: 336 h
# [3] = system: Mycobacterium tuberculosis; assay: Antitubercular activity against serine beta-lactamase producing Mycobacterium tuberculosis H37Rv after 14 days in presence of GAST/Fe medium by eleven fold serial dilution method; conditions: 336 h
# [4] = system: Mycobacterium tuberculosis; assay: Antitubercular activity against clinical drug sensitive Mycobacterium tuberculosis K14b00DS after 14 days in presence of middlebrook 7H9/BSA medium by eleven fold serial dilution method; conditions: 336 h
Structure (SMILES),MBC [1] [µg/mL],MIC [1] [µg/mL],MIC99 [2] [µg/mL],MIC99 [3] [µg/mL],MIC [4] [µg/mL]
C[C@@H](NC(=O)N1C(=O)C[C@@H]1Sc1ccc(F)c(Cl)c1)c1ccccc1,25,25,25,1.5,–
O=C1CC(Sc2ccc(F)c(F)c2)N1C(=O)NCc1ccccc1 (racemic),–,–,6.2,–,–
C[C@H](NC(=O)N1C(=O)C[C@H]1Sc1ccc(F)cc1Cl)c1ccccc1,200,200,37.5,1.5,–
O=C1CC(Sc2ccccc2F)N1C(=O)NCc1ccccc1 (racemic),–,–,25,–,–
C[C@@H](NC(=O)N1C(=O)C[C@@H]1Sc1ccccc1F)c1ccccc1,50,25,25,12.5,–
C[C@H](NC(=O)N1C(=O)C[C@@H]1Sc1ccc(F)cc1Cl)c1ccccc1,50,50,25,1.5,–
COc1ccc(S[C@@H]2CC(=O)N2C(=O)N[C@@H](C)c2ccccc2)cc1,50,50,50,25,–
COc1ccccc1SC1CC(=O)N1C(=O)NCc1ccccc1 (racemic),–,–,188,–,–
O=C1CC([Se]c2ccccc2)N1C(=O)NCc1ccccc1 (racemic),12.5,12.5,25,–,–
C[C@@H](NC(=O)N1C(=O)C[C@H]1Sc1ccc(F)cc1)c1ccccc1,25,25,50,25,–
O=C1CC(Sc2ccc(F)c(Cl)c2)N1C(=O)NCc1ccccc1 (racemic),6.2,6.2,–,–,–
COc1ccccc1S[C@@H]1CC(=O)N1C(=O)N[C@@H](C)c1ccccc1,100,100,100,25,–
C[C@@H](NC(=O)N1C(=O)C[C@@H]1Sc1ccc(F)cc1F)c1ccccc1,50,50,25,0.7,25
COc1ccc(S[C@@H]2CC(=O)N2C(=O)N[C@H](C)c2ccccc2)cc1,50,50,100,25,–
C[C@H](NC(=O)N1C(=O)C[C@@H]1Sc1ccc(C(F)(F)F)cc1)c1ccccc1,200,200,25,–,25
C[C@H](NC(=O)N1C(=O)C[C@@H]1Sc1ccc(F)cc1)c1ccccc1,50,25,50,12.5,–

Structure (SMILES),MBC [1] [µg/mL],MIC [1] [µg/mL],MIC99 [2] [µg/mL],MIC99 [3] [µg/mL],MIC [4] [µg/mL]
C[C@@H](NC(=O)N1C(=O)C[C@H]1[Se]c1ccccc1)c1ccccc1,50,25,25,12.5,–
COc1ccc(SC2CC(=O)N2)cc1 (racemic),200,> 200,100,–,–
NNC(=O)c1ccncc1 [ISONIAZID],–,–,0.07,0.02,0.08
COc1ccccc1S[C@H]1CC(=O)N1C(=O)N[C@@H](C)c1ccccc1,50,50,25,6.2,–
C[C@@H](NC(=O)N1C(=O)C[C@H]1Sc1ccccc1F)c1ccccc1,25,12.5,25,12.5,–
C[C@H](NC(=O)N1C(=O)C[C@@H]1Sc1c(F)c(F)c(F)c(F)c1F)c1ccccc1,6.2,6.2,100,0.7,–
C[C@@H](NC(=O)N1C(=O)C[C@H]1Sc1ccc(F)c(F)c1)c1ccccc1,12.5,12.5,≥ 100,0.7,–
C[C@@H](NC(=O)N1C(=O)C[C@@H]1Sc1ccc(F)cc1Cl)c1ccccc1,25,25,25,0.7,–
O=C1CC(Sc2ccc(C(F)(F)F)cc2)N1 (racemic),–,–,25,–,–
C[C@H](NC(=O)N1C(=O)C[C@H]1Sc1ccccc1F)c1ccccc1,50,50,50,12.5,–
C[C@@H](NC(=O)N1C(=O)C[C@@H]1Sc1ccc(C(F)(F)F)cc1)c1ccccc1,200,200,100,–,–
C[C@@H](NC(=O)N1C(=O)C[C@H]1Sc1ccc(F)cc1Cl)c1ccccc1,25,25,50,1.5,–
CC[C@H]1OC(=O)[C@H](C)[C@@H](O[C@H]2C[C@@](C)(OC)[C@@H](O)[C@H](C)O2)[C@H](C)[C@@H](O[C@@H]2O[C@H](C)C[C@H](N(C)C)[C@H]2O)[C@](C)(O)C[C@@H](C)CN(C)[C@H](C)[C@@H](O)[C@]1(C)O [AZITHROMYCIN],0.063,0.125,–,–,–
C[C@@H](NC(=O)N1C(=O)C[C@@H]1[Se]c1ccccc1)c1ccccc1,50,25,25,12.5,–
O=C1CC(Sc2ccc(F)cc2Cl)N1 (racemic),–,–,25,–,–
